Literature values in PubChem BioAssay AID1259409 (Chemical Carcinogenesis Research Information System (CCRIS), 2018).

Test system: rodent chemically induced tumor inhibition, incidence and multiplicity
Test: CCRIS tumor inhibitor studies

C[C@]12CC[C@H](O)CC1=CC[C@@H]1[C@@H]2CC[C@]2(C)C(=O)CC[C@@H]12
tumour outcome (control, treated, inhibition, significance) (Carcinogen: N-METHYL-N-NITROSOUREA, 684-93-5, Dose [Inhibitor]: 0, 5 PPM IN DIET FOR DURATION OF STUDY BEGINNING 1 WK PRIOR TO CARCINOGEN DOSE (STUDY DURATION: 109 D), Route [Inhibitor]: ORAL, Species: RAT, Strain/Sex: SPRAGUE-DAWLEY/FEMALE, Target Tissue: Type of Lesion: MAMMARY GLAND: TUMOR, Dose [Carcinogen]: 50 MG/KG BW IN ACIDIFIED SALINE (PH 5.0) ONCE, Promoter: NONE USED): 100%, 89%, 11%, not calculated | tumour outcome (control, treated, inhibition, significance) (Carcinogen: N-METHYL-N-NITROSOUREA, 684-93-5, Dose [Inhibitor]: 0, 24 PPM IN DIET FOR DURATION OF STUDY BEGINNING 1 WK PRIOR TO CARCINOGEN DOSE (STUDY DURATION: 109 D), Route [Inhibitor]: ORAL, Species: RAT, Strain/Sex: SPRAGUE-DAWLEY/FEMALE, Target Tissue: Type of Lesion: MAMMARY GLAND: TUMOR, Dose [Carcinogen]: 50 MG/KG BW IN ACIDIFIED SALINE (PH 5.0) ONCE, Promoter: NONE USED): 100%, 80%, 20%, not calculated | tumour outcome (control, treated, inhibition, significance) (Carcinogen: N-METHYL-N-NITROSOUREA, 684-93-5, Dose [Inhibitor]: 0, 120 PPM IN DIET FOR DURATION OF STUDY BEGINNING 1 WK PRIOR TO CARCINOGEN DOSE (STUDY DURATION: 109 D), Route [Inhibitor]: ORAL, Species: RAT, Strain/Sex: SPRAGUE-DAWLEY/FEMALE, Target Tissue: Type of Lesion: MAMMARY GLAND: TUMOR, Dose [Carcinogen]: 50 MG/KG BW IN ACIDIFIED SALINE (PH 5.0) ONCE, Promoter: NONE USED): 100%, 80%, 20%, not calculated | tumour outcome (control, treated, inhibition, significance) (Carcinogen: N-METHYL-N-NITROSOUREA, 684-93-5, Dose [Inhibitor]: 0, 400 MG/KG DIET FOR DURATION OF STUDY BEGINNING 1 WK PRIOR TO CARCINOGEN DOSE (STUDY DURATION: 187 D), Route [Inhibitor]: ORAL, Species: RAT, Strain/Sex: SPRAGUE-DAWLEY/FEMALE, Target Tissue: Type of Lesion: MAMMARY GLAND: TUMOR, Dose [Carcinogen]: 35 MG/KG BW ONCE, Promoter: NONE USED): 85%, 0%, 100%, p<0.01 | tumour outcome (control, treated, inhibition, significance) (Carcinogen: N-METHYL-N-NITROSOUREA, 684-93-5, Dose [Inhibitor]: 0, 600 PPM IN DIET FOR DURATION OF STUDY BEGINNING 1 WK PRIOR TO CARCINOGEN DOSE (STUDY DURATION: 109 D), Route [Inhibitor]: ORAL, Species: RAT, Strain/Sex: SPRAGUE-DAWLEY/FEMALE, Target Tissue: Type of Lesion: MAMMARY GLAND: TUMOR, Dose [Carcinogen]: 50 MG/KG BW IN ACIDIFIED SALINE (PH 5.0) ONCE, Promoter: NONE USED): 100%, 40%, 60%, not calculated | tumour outcome (control, treated, inhibition, significance) (Carcinogen: N-METHYL-N-NITROSOUREA, 684-93-5, Dose [Inhibitor]: 0, 800 MG/KG DIET FOR DURATION OF STUDY BEGINNING 1 WK PRIOR TO CARCINOGEN DOSE (STUDY DURATION: 187 D), Route [Inhibitor]: ORAL, Species: RAT, Strain/Sex: SPRAGUE-DAWLEY/FEMALE, Target Tissue: Type of Lesion: MAMMARY GLAND: TUMOR, Dose [Carcinogen]: 35 MG/KG BW ONCE, Promoter: NONE USED): 70%, 0%, 100%, p<0.01 | tumour outcome (control, treated, inhibition, significance) (Carcinogen: N-NITROSOMORPHOLINE, 59-89-2, Dose [Inhibitor]: 0.25% IN DIET (STUDY DURATION: 51 WK), Route [Inhibitor]: ORAL, Species: RAT, Strain/Sex: SPRAGUE-DAWLEY/MALE, Target Tissue: Type of Lesion: LIVER: HEMANGIOSARCOMA, Dose [Carcinogen]: 120 MG/L IN DRINKING WATER FOR FIRST 7 WK OF STUDY, Promoter: NONE USED): 8/35 (23%), 1/35 (3%), 88%, p<0.05 | tumour outcome (control, treated, inhibition, significance) (Carcinogen: N-NITROSOMORPHOLINE, 59-89-2, Dose [Inhibitor]: 0.25% IN DIET (STUDY DURATION: 51 WK), Route [Inhibitor]: ORAL, Species: RAT, Strain/Sex: SPRAGUE-DAWLEY/MALE, Target Tissue: Type of Lesion: LIVER: HEPATOCELLULAR ADENOMA, MIXED CELL, Dose [Carcinogen]: 120 MG/L IN DRINKING WATER FOR FIRST 7 WK OF STUDY, Promoter: NONE USED): 32/35 (91%), 28/35 (80%), 14%, not calculated | tumour outcome (control, treated, inhibition, significance) (Carcinogen: N-NITROSOMORPHOLINE, 59-89-2, Dose [Inhibitor]: 0.25% IN DIET (STUDY DURATION: 51 WK), Route [Inhibitor]: ORAL, Species: RAT, Strain/Sex: SPRAGUE-DAWLEY/MALE, Target Tissue: Type of Lesion: LIVER: HEPATOCELLULAR CARCINOMA, Dose [Carcinogen]: 120 MG/L IN DRINKING WATER FOR FIRST 7 WK OF STUDY, Promoter: NONE USED): 33%, 20%, 39%, not calculated | tumour outcome (control, treated, inhibition, significance) (Carcinogen: N-methyl-N-nitrosourea, 684-93-5, Dose [Inhibitor]: 125 mg/kg in diet for 6 wks starting 6 wks after administration of carcinogen, Route [Inhibitor]: Oral, Species: Rat, Strain/Sex: Sprague Dawley/Female, Target Tissue: Type of Lesion: Mammary gland: tumors, Dose [Carcinogen]: 50 mg/kg injected once in 50 d old mice, tumors allowed to develop for 6 wks before inhibitor administration (Test mater, Promoter: None used): 93.3%, 96.7%, -0.03%, not significant | tumour outcome (control, treated, inhibition, significance) (Carcinogen: N-methyl-N-nitrosourea, 684-93-5, Dose [Inhibitor]: 1000 mg/kg in diet for 6 wks starting 6 wks after administration of carcinogen, Route [Inhibitor]: Oral, Species: Rat, Strain/Sex: Sprague Dawley/Female, Target Tissue: Type of Lesion: Mammary gland: tumors, Dose [Carcinogen]: 50 mg/kg injected once in 50 d old mice, tumors allowed to develop for 6 wks before inhibitor administration (Test mater, Promoter: None used): 93.3%, 76.7%, 17.8%, not significant | tumour outcome (control, treated, inhibition, significance) (Carcinogen: NONE USED, Dose [Inhibitor]: 0, 0.45% IN DIET FOR DURATION OF STUDY (STUDY DURATION: 84 WK), Route [Inhibitor]: ORAL, Species: RAT, Strain/Sex: F344/MALE, Target Tissue: Type of Lesion: TESTES: LEYDIG CELL TUMOR, Promoter: NONE USED): 8/8 (100%), 0/13 (0%), 100%, p<0.005 | tumour outcome (control, treated, inhibition, significance) (Carcinogen: NONE USED, Dose [Inhibitor]: 450 MG/KG IN SESAME OIL 3/WK BEGINNING AT 5-6 WK OF AGE AND CONTINUING FOR DURATION OF STUDY (STUDY DURATION: 18 MO), Route [Inhibitor]: INTRAGASTRIC, Species: MOUSE, Strain/Sex: C3H-A/A/FEMALE, Target Tissue: Type of Lesion: MAMMARY GLAND: TUMOR, Promoter: NONE USED): 21/78 (27%), 9/77 (12%), 56%, p<0.05 | tumour outcome (control, treated, inhibition, significance) (Carcinogen: NONE USED, Dose [Inhibitor]: 450 MG/KG IN SESAME OIL 3/WK BEGINNING AT 5-6 WK OF AGE AND CONTINUING FOR DURATION OF STUDY (STUDY DURATION: 18 MO), Route [Inhibitor]: INTRAGASTRIC, Species: MOUSE, Strain/Sex: C3H-AVY/A/FEMALE, Target Tissue: Type of Lesion: MAMMARY GLAND: TUMOR, Promoter: NONE USED): 19/27 (70%), 5/23 (22%), 68%, p<0.005 | tumour outcome (control, treated, inhibition, significance) (Carcinogen: NONE USED, Dose [Inhibitor]: 450 MG/KG IN SESAME OIL 3/WK FOR DURATION OF STUDY (STUDY DURATION: 9 MO), Route [Inhibitor]: INTRAGASTRIC, Species: MOUSE, Strain/Sex: C3H-AVY/A/FEMALE, Target Tissue: Type of Lesion: MAMMARY GLAND: TUMOR, Promoter: NONE USED): 14/26 (54%), 0/24 (0%), 100%, not calculated
